The values below come from patent US20130012432A1, “Peptides for Treatment of Obesity” (Novo Nordisk A/S, priority 2010, published 2013).

The target of one series is MC1 receptor (Homo sapiens, UniProt Q01726). As to the kind of experiment: biochemical. The protocol:
Assay (IV)—Melanocortin Receptor 1 (MC1) Binding Assay
The MC1 receptor binding assay was performed on BHK cell membranes stably expressing the MC1 receptor. The assay was performed in a total volume of 250 μl: 25 μl of ^125NDP-α-MSH (22 pM in final concentration), 25 μl of test compound/control and 200 μl of cell membrane (25 μg/ml). Test compounds were dissolved in DMSO. Radioactively labeled ligand, membranes and test compounds were diluted in buffer: 25 mM HEPES, pH 7.4, 0.1 mM CaCl2, 1 mM MgSO4, 1 mM EDTA, 0.1% HSA and 0.005% Tween™ 20. Alternatively, HSA may be substituted with ovalbumin. The samples were incubated at 30° C. for 90 min. in Costar round-bottom microtiter plates. Incubation was terminated by filtration on a Packard harvester filtermate. Rapid filtration through Packard Unifilter-96 GF/B filters pre-treated with polyetylenimine (PerkinElmer 6005277). The filters were washed with ice-cold 0.9% NaCl 8-10 times. The plates were air-dried at app. 55° C. for 30 min, and 50 μl Microscint 0 (Packard, cat. No. 6013616) was added to each well. The plates were counted in a Topcounter (1 min/well).
The data were analysed by non-linear regression analysis of binding curves, using the Windows™ program GraphPad™ Prism (GraphPad Software, USA).

The nature of another series: physchem. The protocol:
From a stock solution in vehicle, either H2O or 10 mM phosphate, containing 1 mg (as weighed) compound per ml, 8-11 aliquots are withdrawn and pH-adjusted individually with HCl/NaOH, to cover the whole pH range.

Structures are written as SMILES. ≈ marks a conversion by molar mass, not a printed value. Positions of bridges follow the written chain, without caps; N, C: chain ends. Non-standard residues stand in square brackets, D forms with d. Residues, ends and D or L forms follow the SMILES beside them. Groups on a side chain read outwards from the residue. *: point of attachment. Palmitoyl(16-(5-tetrazolyl)) = O=C(CCCCCCCCCCCCCCCc1nnn[nH]1)*; Lys(CH2CO2H)2 = N[C@@H](CCCCN(CC(=O)O)CC(=O)O)C(=O)O; C18 diacid = O=C(O)CCCCCCCCCCCCCCCCC(=O)*; C16 diacid = O=C(O)CCCCCCCCCCCCCCC(=O)*; NTA = O=C(O)CN(CC(=O)O)CC(=O)*; hCys = N[C@@H](CCS)C(=O)O; Dap = NC[C@H](N)C(=O)O; AEEA = NCCOCCOCC(=O)O

MC1 receptor, sequence (Q01726 whole entry): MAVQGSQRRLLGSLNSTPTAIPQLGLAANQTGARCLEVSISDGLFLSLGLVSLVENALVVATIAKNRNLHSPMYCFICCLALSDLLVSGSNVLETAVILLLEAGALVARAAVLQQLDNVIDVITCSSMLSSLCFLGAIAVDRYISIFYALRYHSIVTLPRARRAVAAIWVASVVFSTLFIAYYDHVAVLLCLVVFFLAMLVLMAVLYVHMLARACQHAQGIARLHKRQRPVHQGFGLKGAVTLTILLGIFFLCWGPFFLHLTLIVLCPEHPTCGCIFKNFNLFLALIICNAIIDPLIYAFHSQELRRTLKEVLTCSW

The term Ki denotes the equilibrium dissociation constant of an inhibitor or competing ligand from its target. High values mean weaker binding, low ones tighter binding. As for `CC(=O)N[C@H]1CCSSC[C@@H](C(=O)N2CCC[C@H]2C(=O)N2CCC[C@H]2C(=O)N[C@@H](CCCCN)C(=O)N[C@@H](CC(=O)O)C(=O)N[C@@H](CNC(=O)CN(CC(=O)O)CC(=O)O)C(=O)N[C@@H](CCCCNC(=O)COCCOCCNC(=O)CCCCCCCCCCCCCCCc2nnn[nH]2)C(=O)O)NC(=O)[C@H](Cc2c[nH]c3ccccc23)NC(=O)[C@H](CCCNC(=N)N)NC(=O)[C@@H](Cc2ccccc2)NC(=O)[C@H](Cc2c[nH]cn2)NC1=O` [Example 4, Ac-c[homoCys-His-D-Phe-Arg-Trp-Cys]-Pro-Pro-Lys-Asp-Dap(BCMA)-Lys[(2-{2-[16-(tetrazol-5-yl)hexadecanoylamino]ethoxy}ethoxy)acetyl]-OH] (Ac-[hCys]H[dF]RWCPPKD[Dap](NTA)K([AEEA-Palmitoyl(16-(5-tetrazolyl))])-OH; disulfide 1-6), on MC1 receptor, the Ki was > 10 µM.

Turning to `CC(=O)N[C@H]1CSSC[C@@H](C(=O)N2CCC[C@H]2C(=O)N2CCC[C@H]2C(=O)N[C@@H](CCCCN)C(=O)N[C@@H](CCC(=O)O)C(=O)N[C@@H](CCCCN(CC(=O)O)CC(=O)O)C(=O)N[C@@H](CCCCNC(=O)COCCOCCNC(=O)CCCCCCCCCCCCCCC(=O)O)C(N)=O)NC(=O)CNC(=O)[C@H](Cc2c[nH]c3ccccc23)NC(=O)[C@H](CCCNC(=N)N)NC(=O)[C@@H](Cc2ccccc2)NC(=O)[C@H](Cc2c[nH]cn2)NC(=O)[C@H](CCC(=O)O)NC1=O` [Example 59, Ac-c[Cys-Glu-His-D-Phe-Arg-Trp-Gly-Cys]-Pro-Pro-Lys-Glu-Lys(biscarboxymethyl)-Lys({2-[2-(15-carboxypentadecanoylamino)ethoxy]ethoxy}acetyl)-NH2] (Ac-CEH[dF]RWGCPPKE[Lys(CH2CO2H)2]K([AEEA-C16 diacid])-NH2; disulfide 1-8), the Ki on MC1 receptor was > 10 µM.

A word on the solubility: it is how much of the substance goes into solution per volume. Turning to `CC(=O)N[C@H]1CCSSC[C@@H](C(=O)N[C@@H](CO)C(=O)N2CCC[C@H]2C(=O)N[C@@H](CCCCN)C(=O)N[C@@H](CCC(=O)O)C(=O)N[C@@H](CCCCN(CC(=O)O)CC(=O)O)C(=O)N[C@@H](CCCCNC(=O)COCCOCCNC(=O)CCCCCCCCCCCCCCC(=O)O)C(N)=O)NC(=O)[C@H](Cc2c[nH]c3ccccc23)NC(=O)[C@H](CCCNC(=N)N)NC(=O)[C@@H](Cc2ccccc2)NC(=O)[C@H](Cc2c[nH]cn2)NC1=O` [Example 60, Ac-c[homoCys-His-D-Phe-Arg-Trp-Cys]-Ser-Pro-Lys-Glu-Lys(biscarboxymethyl)-Lys({2-[2-(15-carboxypentadecanoylamino)ethoxy]ethoxy}acetyl)-NH2] (Ac-[hCys]H[dF]RWCSPKE[Lys(CH2CO2H)2]K([AEEA-C16 diacid])-NH2; disulfide 1-6), the solubility in “physchem” (pH 4, Solubility Conc.) amounted to 424 µM (≈ 904 µg/mL); in “physchem” (pH 5.4, Solubility Conc.), 126 µM (≈ 269 µg/mL); in the series “physchem” (pH 6, Solubility Conc.), 133 µM (≈ 283 µg/mL); in the series “physchem” (pH 6.2, Solubility Conc.), 171 µM (≈ 364 µg/mL); in “physchem” (pH 6.4, Solubility Conc.) it was 415 µM (≈ 885 µg/mL); in the series “physchem” (pH 6.8, Solubility Conc.) it was 457 µM (≈ 974 µg/mL). Also, the solubility was determined as 459 µM (≈ 978 µg/mL) in the series “physchem” (pH 7.3, Solubility Conc.); 456 µM (≈ 972 µg/mL) in the series “physchem” (pH 7.6, Solubility Conc.); 461 µM (≈ 983 µg/mL) in the series “physchem” (pH 7.8, Solubility Conc.); 450 µM (≈ 959 µg/mL) in the series “physchem” (pH 7.9, Solubility Conc.).

As to `CC(=O)N[C@H]1CCSSC[C@@H](C(=O)N2CCC[C@H]2C(=O)N2CCC[C@H]2C(=O)N[C@@H](CCCCN)C(=O)N[C@@H](CC(=O)O)C(=O)N[C@@H](CNC(=O)CN(CC(=O)O)CC(=O)O)C(=O)N[C@@H](CCCCNC(=O)COCCOCCNC(=O)CCCCCCCCCCCCCCCc2nnn[nH]2)C(N)=O)NC(=O)[C@H](Cc2c[nH]c3ccccc23)NC(=O)[C@H](CCCNC(=N)N)NC(=O)[C@@H](Cc2ccccc2)NC(=O)[C@H](Cc2c[nH]cn2)NC1=O` [Example 61, Ac-c[homoCys-His-D-Phe-Arg-Trp-Cys]-Pro-Pro-Lys-Asp-Dap(BCMA)-Lys[(2-{2-[16-(tetrazol-5-yl)hexadecanoylamino]ethoxy}ethoxy)acetyl]-NH2] (Ac-[hCys]H[dF]RWCPPKD[Dap](NTA)K([AEEA-Palmitoyl(16-(5-tetrazolyl))])-NH2; disulfide 1-6), the solubility in “physchem” (pH 3.3, Solubility Conc.) is 623 µM (≈ 1360 µg/mL); in the series “physchem” (pH 4.4, Solubility Conc.) it was 575 µM (≈ 1250 µg/mL); in “physchem” (pH 4.8, Solubility Conc.), 584 µM (≈ 1270 µg/mL); in the series “physchem” (pH 5.3, Solubility Conc.) it was 32 µM (≈ 69.8 µg/mL); in the series “physchem” (pH 6.3, Solubility Conc.), 26 µM (≈ 56.7 µg/mL); in “physchem” (pH 6.8, Solubility Conc.), 46 µM (≈ 100 µg/mL). Besides, the solubility in the series “physchem” (pH 7.1, Solubility Conc.) amounted to 256 µM (≈ 558 µg/mL); in the series “physchem” (pH 7.3, Solubility Conc.) it was 630 µM (≈ 1370 µg/mL); in “physchem” (pH 7.4, Solubility Conc.) it was 713 µM (≈ 1550 µg/mL); in “physchem” (pH 7.7, Solubility Conc.), 805 µM (≈ 1760 µg/mL).

Regarding `CC(=O)N[C@H]1CCSSC[C@@H](C(=O)N[C@@H](CO)C(=O)N2CCC[C@H]2C(=O)N[C@@H](Cc2c[nH]cn2)C(=O)N[C@@H](CCC(=O)O)C(=O)N[C@@H](CCCCN(CC(=O)O)CC(=O)O)C(=O)N[C@@H](CCCCNC(=O)COCCOCCNC(=O)CCCCCCCCCCCCCCCCC(=O)O)C(N)=O)NC(=O)[C@H](Cc2c[nH]c3ccccc23)NC(=O)[C@H](CCCNC(=N)N)NC(=O)[C@@H](Cc2ccccc2)NC(=O)[C@H](Cc2c[nH]cn2)NC1=O` [Example 62, Ac-c[homoCys-His-D-Phe-Arg-Trp-Cys]-Ser-Pro-His-Glu-Lys(biscarboxymethyl)-Lys({2-[2-(17-carboxyheptadecanoylamino)ethoxy]ethoxy}acetyl)-NH2] (Ac-[hCys]H[dF]RWCSPHE[Lys(CH2CO2H)2]K([AEEA-C18 diacid])-NH2; disulfide 1-6), the solubility came to 235 µM (≈ 510 µg/mL) in “physchem” (pH 3.4, Solubility Conc.); 15 µM (≈ 32.5 µg/mL) in “physchem” (pH 5, Solubility Conc.); 41 µM (≈ 88.9 µg/mL) in “physchem” (pH 6.7, Solubility Conc.); 82 µM (≈ 178 µg/mL) in “physchem” (pH 6.9, Solubility Conc.); 42 µM (≈ 91.1 µg/mL) in “physchem” (pH 7, Solubility Conc.); 241 µM (≈ 523 µg/mL) in “physchem” (pH 7.3, Solubility Conc.). Further, the solubility in the series “physchem” (pH 7.4, Solubility Conc.) stood at 243 µM (≈ 527 µg/mL); in the series “physchem” (pH 7.7, Solubility Conc.), 251 µM (≈ 544 µg/mL); in “physchem” (pH 7.9, Solubility Conc.) it was 245 µM (≈ 531 µg/mL); in “physchem” (pH 8, Solubility Conc.) it was 233 µM (≈ 505 µg/mL).

`CC(=O)N[C@H]1CCSSC[C@@H](C(=O)N2CCC[C@H]2C(=O)N2CCC[C@H]2C(=O)N[C@@H](CCCCN)C(=O)N[C@@H](CC(=O)O)C(=O)N[C@@H](CCCCNC(=O)CN(CC(=O)O)CC(=O)O)C(=O)N[C@@H](CCCCNC(=O)COCCOCCNC(=O)CCCCCCCCCCCCCCCc2nnn[nH]2)C(N)=O)NC(=O)[C@H](Cc2c[nH]c3ccccc23)NC(=O)[C@H](CCCNC(=N)N)NC(=O)[C@@H](Cc2ccccc2)NC(=O)[C@H](Cc2c[nH]cn2)NC1=O` [Example 65, Ac-c[homoCys-His-D-Phe-Arg-Trp-Cys]-Pro-Pro-Lys-Asp-Lys(BCMA)-Lys[(2-{2-[16-(tetrazol-5-yl)hexadecanoylamino]ethoxy}ethoxy)acetyl]-NH2] (Ac-[hCys]H[dF]RWCPPKDK(NTA)K([AEEA-Palmitoyl(16-(5-tetrazolyl))])-NH2; disulfide 1-6): on MC1 receptor, the Ki is > 10 µM.

On to `CC(=O)N[C@H]1CSSC[C@@H](C(=O)N2CCC[C@H]2C(=O)N2CCC[C@H]2C(=O)N[C@@H](CCCCN)C(=O)N[C@@H](CCC(=O)O)C(=O)N[C@@H](CCC(=O)O)C(=O)N[C@@H](CCCCNC(=O)COCCOCCNC(=O)CCCCCCCCCCCCCCC(=O)O)C(N)=O)NC(=O)CNC(=O)[C@H](Cc2c[nH]c3ccccc23)NC(=O)[C@H](CCCNC(=N)N)NC(=O)[C@@H](Cc2ccccc2)NC(=O)[C@H](Cc2c[nH]cn2)NC(=O)[C@H](CCC(=O)O)NC1=O` [Example 68, Ac-c[Cys-Glu-His-D-Phe-Arg-Trp-Gly-Cys]-Pro-Pro-Lys-Glu-Glu-Lys({2-[2-(15-carboxypentadecanoylamino)ethoxy]ethoxy}acetyl)-NH2] (Ac-CEH[dF]RWGCPPKEEK([AEEA-C16 diacid])-NH2; disulfide 1-8), for which the solubility in “physchem” (pH 4, Solubility Conc.) was found to be 167 µM (≈ 367 µg/mL); in the series “physchem” (pH 5.1, Solubility Conc.), 87 µM (≈ 191 µg/mL); in “physchem” (pH 5.8, Solubility Conc.), 102 µM (≈ 224 µg/mL); in the series “physchem” (pH 6.2, Solubility Conc.), 164 µM (≈ 361 µg/mL); in the series “physchem” (pH 6.9, Solubility Conc.), 182 µM (≈ 400 µg/mL); in “physchem” (pH 7.3, Solubility Conc.), 181 µM (≈ 398 µg/mL). In addition, the solubility came out at 184 µM (≈ 405 µg/mL) in “physchem” (pH 7.5, Solubility Conc.); 188 µM (≈ 413 µg/mL) in the series “physchem” (pH 7.9, Solubility Conc.); 183 µM (≈ 402 µg/mL) in the series “physchem” (pH 8, Solubility Conc.).
